Assay [1] deals with human osteochondral plugs. Description: T3-induced calcification of human osteochondral plugs (ALP assay, real time-PCR). The class given is cell-based. To be noted: treatment with triiodothyronine (T3), day 0 versus day 20. An excerpt:
FIG. 5 represents the outline for testing of preventing calcification. Experimental design to test the effects of triiodothyronine in inducing calcification and of dorsomorphin in inhibiting calcification in human osteochondral biopsies, an example of which is depicted on the right.
FIG. 6 is two graphs depicting ALP activity. The graphs represent the level of ALP activity in the osteochondral constructs media measured with a colorimetric ALP assay for the samples outlined in the previous figure.
Dorsomorphin has been encapsulated in PLGA-based MPs of micrometer scale dimensions. As the particles degrade, dorsomorphin is released generating a local concentration within the range required to prevent local calcification. To confirm this, human osteochondral plugs (3 mm by 3 mm by 8 mm of a cartilage and bone biopsy-like sample) have been forced to calcify using triiodothyronine (T3) and then exposed to dorsomorphin.

Another assay deals with human chondrocytes. Description: T3-induced hypertrophy of primary chondrocytes. To be noted: T3 medium 14 or 21 days, maintained after exposure to chondrogenic medium. Type of assay: cell-based. An excerpt: FIGS. 7A-7F are microphotographs of human chondrocytes. Chondrocytes extracted from human donors have been cultured under a test medium to induce hypertrophy for 14 or 21 days followed by 14 or 7 days of chondrogenic medium, respectively. The test medium was either chondrogenic medium (negative control, no hypertrophy), medium containing triiodothyronine (T3) (hypertrophic), osteogenic medium (hypertrophic).
In autologous chondrocytes implantation (ACI) chondrocytes are implanted in a local cartilage defect. In an in vitro model of ACI based on a small osteochondral unit, as the one we use, a central cartilage defect would be filled with chondrocytes in a hydrogel. To simulate conditions of calcification, the chondrocytes will be pre-cultured in a hypertrophy inducing medium. After seeding, both native cartilage and implanted chondrocytes would be exposed to chondrogenic medium. We have previously shown that T3 induces hypertrophy in MSCs that underwent chondrogenic differentiation. […] Chondrogenic medium and osteogenic medium are used as comparison.

SMILES strings stand for the structures.

With `N[C@@H](Cc1cc(I)c(Oc2ccc(O)c(I)c2)c(I)c1)C(=O)O` [triiodothyronine], the “ALP activity in osteochondral constructs media” value in assay [1] is “statistically significant (p<0.05) increase in ALP activity”. Further, in the assay on human chondrocytes, the primary chondrocytes hypertrophy result is recorded as “effective to induce primary chondrocytes hypertrophy”.

Source of the values: patent publication US11318103B2, “Treating soft tissue via controlled drug release” (University of Pittsburgh—Of the Commonwealth System of …, priority 2014, dated 2022).
